# Results: US20240376100A1 (Redona Therapeutics, Inc., priority 2021, published 2024)
# Counter-ions that a name gives are not always drawn.
# Target: PAPD5 enzyme (Homo sapiens, UniProt Q8NDF8)
# Assay: PAPD5 assay (AMP incorporation onto 3'-terminus of RNA substrate, fluorescence quench)
# Assay type: biochemical
# Conditions: PAPD5 protein 0.3 nM, ATP 50 μM, 30 minutes preincubation, room temperature; read-out: Potency PAPD5 IC50
# Outline: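 Enzyme at 0.3 nM with 50 μM ATP, pH 7.3 HEPES buffer, preincubated with compound 30 minutes at room temperature; 5 nM 5′-fluorescein RNA substrate and 20 nM TAMRA quench probe then added. Initial rates from kinetic fluorescein decrease over ~90 minutes; IC50 by four-parameter fit.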
# PAPD5 enzyme, sequence (Q8NDF8 whole entry): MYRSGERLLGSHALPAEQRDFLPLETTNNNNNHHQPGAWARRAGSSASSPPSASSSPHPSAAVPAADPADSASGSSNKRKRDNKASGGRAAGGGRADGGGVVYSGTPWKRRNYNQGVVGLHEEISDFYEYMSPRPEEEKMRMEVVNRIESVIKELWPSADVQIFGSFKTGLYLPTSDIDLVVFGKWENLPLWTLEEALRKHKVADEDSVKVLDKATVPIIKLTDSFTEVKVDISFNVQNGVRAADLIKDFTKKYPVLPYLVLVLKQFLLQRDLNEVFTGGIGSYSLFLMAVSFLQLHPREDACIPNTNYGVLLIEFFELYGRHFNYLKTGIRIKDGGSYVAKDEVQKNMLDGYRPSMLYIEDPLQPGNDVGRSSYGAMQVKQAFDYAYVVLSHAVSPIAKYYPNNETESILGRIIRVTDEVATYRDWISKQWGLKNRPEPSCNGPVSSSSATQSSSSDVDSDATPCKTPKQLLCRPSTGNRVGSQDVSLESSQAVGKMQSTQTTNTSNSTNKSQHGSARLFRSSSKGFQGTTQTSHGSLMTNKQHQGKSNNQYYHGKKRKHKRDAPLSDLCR
row,Structure (SMILES),IC50
1,"CCOc1cc2c(=O)c(C(=O)O)cn(-c3cnc(N)cc3C)c2cc1N1Cc2cccnc2C1 [Example 144, 1-(6-amino-4-methylpyridin-3-yl)-7-(5,7-dihydro-6H-pyrrolo[3,4-b]pyridin-6-yl)-6-ethoxy-4-oxo-1,4-dihydroquinoline-3-carboxylic acid]",≤ 1000 nM
2,"Cc1cc(N(C)C)ncc1-n1cc(C(=O)O)c(=O)c2cc(Cl)c(N3Cc4cccnc4C3)nc21 [Example 146, 6-chloro-7-(5,7-dihydro-6H-pyrrolo[3,4-b]pyridin-6-yl)-1-(6-(dimethylamino)-4-methylpyridin-3-yl)-4-oxo-1,4-dihydro-1,8-naphthyridine-3-carboxylic acid]",≤ 1000 nM
3,"Cc1cc(N)ncc1-n1cc(C(=O)O)c(=O)c2cc(Cl)c(-n3ccc(N)n3)nc21 [Example 147, 7-(3-amino-1H-pyrazol-1-yl)-1-(6-amino-4-methylpyridin-3-yl)-6-chloro-4-oxo-1,4-dihydro-1,8-naphthyridine-3-carboxylic acid]",≤ 1000 nM
4,"CNc1ccn(-c2nc3c(cc2Cl)c(=O)c(C(=O)O)cn3-c2cnc(N)cc2C)n1 [Example 148, 1-(6-amino-4-methylpyridin-3-yl)-6-chloro-7-(3-(methylamino)-1H-pyrazol-1-yl)-4-oxo-1,4-dihydro-1,8-naphthyridine-3-carboxylic acid]",≤ 1000 nM
5,"CCOc1cc2c(=O)c(C(=O)O)cn(-c3cnc(NC(=O)OC(C)(C)C)cc3C)c2cc1N1Cc2cccnc2C1 [Example 149, 1-(6-((tert-butoxycarbonyl)amino)-4-methylpyridin-3-yl)-7-(5,7-dihydro-6H-pyrrolo[3,4-b]pyridin-6-yl)-6-ethoxy-4-oxo-1,4-dihydroquinoline-3-carboxylic acid]",≤ 1000 nM
6,"Cc1cc(NC(=O)OC(C)(C)C)ncc1-n1cc(C(=O)O)c(=O)c2cnc(N3Cc4cccnc4C3)cc21 [Example 150, 1-(6-((tert-butoxycarbonyl)amino)-4-methylpyridin-3-yl)-7-(5,7-dihydro-6H-pyrrolo[3,4-b]pyridin-6-yl)-4-oxo-1,4-dihydro-1,6-naphthyridine-3-carboxylic acid]",≤ 1000 nM
7,"COCCNc1cc(C)c(-n2cc(C(=O)O)c(=O)c3cc(Cl)c(N4Cc5cccnc5C4)nc32)cn1 [Example 151, 6-chloro-7-(5,7-dihydro-6H-pyrrolo[3,4-b]pyridin-6-yl)-1-(6-((2-methoxyethyl)amino)-4-methylpyridin-3-yl)-4-oxo-1,4-dihydro-1,8-naphthyridine-3-carboxylic acid]",≤ 1000 nM
8,"Cc1cc(N)ncc1-n1cc(C(=O)O)c(=O)c2cc(Cl)c(-n3ccnc3)nc21 [Example 152, 1-(6-amino-4-methylpyridin-3-yl)-6-chloro-7-(1H-imidazol-1-yl)-4-oxo-1,4-dihydro-1,8-naphthyridine-3-carboxylic acid]",≤ 1000 nM
9,"Cc1cc(N)ncc1-n1cc(C(=O)O)c(=O)c2cc(Cl)c(-n3cccn3)nc21 [Example 153, 1-(6-amino-4-methylpyridin-3-yl)-6-chloro-4-oxo-7-(1H-pyrazol-1-yl)-1,4-dihydro-1,8-naphthyridine-3-carboxylic acid]",≤ 1000 nM
10,"Cc1cc(N)ncc1-n1cc(C(=O)O)c(=O)c2ccc(N3Cc4cccnc4C3)c(F)c21 [Example 154, 1-(6-amino-4-methylpyridin-3-yl)-7-5,7-dihydro-6H-pyrrolo[3,4-b]pyridin-6-yl)-8-fluoro-4-oxo-1,4-dihydroquinoline-3-carboxylic acid hydrochloride]",≤ 1000 nM
11,"Cc1cc(N)ncc1-n1cc(C(=O)O)c(=O)c2ccc(N3Cc4ccccc4C3)c(F)c21 [Example 155, 1-(6-amino-4-methylpyridin-3-yl)-8-fluoro-7-(isoindolin-2-yl)-4-oxo-1,4-dihydroquinoline-3-carboxylic acid]",≤ 1000 nM
